According to patent US20060062736A1, “Therapeutic foam” (priority 2003, published 2006):

Experiment: In vitro absorption of foam/gas in fresh human venous blood
Type: in vitro ADME
Settings: 0.5 ml aliquot into 20 ml stirred blood
Method: In vitro experiments were conducted to determine the absorption of foam made with different gases in fresh human venous blood.
A 20 ml polypropylene syringe barrel was prepared by puncturing its side wall with a relatively large hypodermic needle to make a hole approximately 1 mm in diameter. This hole was then covered by securing a piece of clear flexible vinyl sheet over it with clear adhesive tape. A small magnetic stirrer element was introduced into the syringe barrel and the plunger then replaced. 20 ml of human venous blood was then with withdrawn in the usual manner from a human subject using the specially prepared syringe fitted with a hypodermic needle.
The hypodermic needle was removed and the syringe then placed on a magnetic stirrer unit so that the magnetic element in the syringe thoroughly agitated the blood. […]
The needle of the 0.5 ml syringe was then introduced through the vinyl sheet on the side wall of the 20 ml syringe. […] It was determined that a distance of 45 intervals on this scale corresponded to an internal volume of in the manometer tubing of approximately 0.5 ml. […]
In this experiment, the air foam test was only observed for a few minutes after tF. However, further experiments have been conducted by the inventors, the results of which are not formally recorded here, involving foam with a percentage of nitrogen. […]

## O=O [Oxygen gas, oxygen]
  Absorbed volume at tF 0.5(y − z)/(y − x): 0.46 mL
  tF (time at which blood column stopped moving): 140 s
